Measurements: patent publication US10604494B2, “Acylated N-(1 ,2,5-oxadiazol-3-yl)-, N-(1,3,4-oxadiazol-2-yl)-, N-(tetrazol-5-yl)- and N-(triazol-5-yl)-aryl carboxamides, and use thereof as herbicides” (Bayer CropScience Aktiengesellschaft, priority 2015, dated 2020)

Key:
Type in all cases: in vivo
[1] = system: Abutilon theophrasti; assay: Pre-emergence herbicidal action against harmful plants; details: 504 h, application rate 320 g/ha, scored visually after 3 weeks vs untreated controls, 100% = plants have died, 0% = like control plants, read-out: efficacy (herbicidal activity in percent) against Abutilon theophrasti
Source text: (§1) 1. Pre-Emergence Herbicidal Action Against Harmful Plants Seeds of monocotyledonous and dicotyledonous weed plants and crop plants are laid out in sandy loam in wood-fiber pots and covered with soil. The compounds of the invention, formulated in the form of wettable powders (WP) or as emulsion concentrates (EC), are then applied to the surface of the covering soil in the form of an aqueous suspension or emulsion at a water application rate equating to 600 to 800 I/ha, with addition of 0.2% wetting agent. After the treatment, the pots are placed in a greenhouse and kept under good growth conditions for the trial plants. The damage to the test plants is scored visually after a test period of 3 weeks by comparison with untreated controls (herbicidal activity in percent (%): 100% activity=the plants have died, 0% activity=like control plants). In this case, for example, compound Nos. 1-086, 1-028, 1-206, 1-447, 1-448, 1-449, 1-454, 1-458, 1-470, 1-471, 1-472, 1-477, 1-487, 2-477, 2-480, 2-500, 3-143, 3-475, 3-491, 4-188, 4-495, 4-430, 4-496, 13-001, 13-031 and 13-032, at an application rate of 320 g/ha, each show at least 80% efficacy against Abutilon theophrasti and Veronica persica.

[2] = system: Veronica persica; assay: as above; details: 504 h, application rate 320 g/ha, scored visually after 3 weeks vs untreated controls, 100% = plants have died, 0% = like control plants, read-out: efficacy (herbicidal activity in percent) against Veronica persica
Source text: as §1

[3] = system: Abutilon theophrasti; assay: Post-emergence herbicidal action against harmful plants; details: 504 h, one-leaf stage, application rate 80 g/ha, assessed visually after about 3 weeks vs untreated controls, 100% = plants have died, 0% = like control plants, read-out: efficacy (herbicidal action in percent) against Abutilon theophrasti
Protocol: (§2) 2. Post-Emergence Herbicidal Action Against Harmful Plants Seeds of monocotyledonous and dicotyledonous weed and crop plants are laid out in sandy loam soil in wood-fiber pots, covered with soil and cultivated in a greenhouse under good growth conditions. 2 to 3 weeks after sowing, the test plants are treated at the one-leaf stage. The compounds of the invention, formulated in the form of wettable powders (WP) or as emulsion concentrates (EC), are then sprayed onto the green parts of the plants in the form of an aqueous suspension or emulsion at a water application rate equating to 600 to 800 I/ha, with addition of 0.2% wetting agent. After the test plants have been left to stand in the greenhouse under optimal growth conditions for about 3 weeks, the action of the preparations is assessed visually in comparison to untreated controls (herbicidal action in percent (%): 100% activity=the plants have died, 0% activity=like control plants). In this case, for example, compound Nos. 1-028, 1-085, 1-086, 1-206, 1-447, 1-448, 1-449, 1-453, 1-457, 1-460, 1-470, 1-471, 1-472, 1-487, 2-500, 3-143, 3-146, 3-487, 3-491, 3-492, 4-144, 4-188, 13-001, 13-031 and 13-032, at an application rate of 80 g/ha, each show at least 80% efficacy against Abutilon theophrasti and Veronica persica.

[4] = system: Veronica persica; assay: as above; details: 504 h, one-leaf stage, application rate 80 g/ha, assessed visually after about 3 weeks vs untreated controls, 100% = plants have died, 0% = like control plants, read-out: efficacy (herbicidal action in percent) against Veronica persica
Protocol: as §2

CC(C)c1c(C(=O)N(C(=O)c2ccc(C(F)(F)F)c(S(C)(=O)=O)c2C(C)C)c2nnnn2C)ccc(C(F)(F)F)c1S(C)(=O)=O [1-206]
≥ 80%: pest or weed control at 320 g/ha [1] | pest or weed control at 320 g/ha [2] | pest or weed control at 80 g/ha [3] | pest or weed control at 80 g/ha [4]

Cc1c(C(=O)N(C(=O)c2ccc(C(F)(F)F)c(N)c2C)c2nnnn2C)ccc(C(F)(F)F)c1N [1-447]
≥ 80%: pest or weed control at 320 g/ha [1] | pest or weed control at 320 g/ha [2] | pest or weed control at 80 g/ha [3] | pest or weed control at 80 g/ha [4]

Cc1c(C(=O)N(C(=O)c2ccc(C(F)(F)F)c(N(C)C)c2C)c2nnnn2C)ccc(C(F)(F)F)c1N(C)C [1-448]
≥ 80%: pest or weed control at 320 g/ha [1] | pest or weed control at 320 g/ha [2] | pest or weed control at 80 g/ha [3] | pest or weed control at 80 g/ha [4]

CNc1c(C(F)(F)F)ccc(C(=O)N(C(=O)c2ccc(C(F)(F)F)c(NC)c2C)c2nnnn2C)c1C [1-449]
≥ 80%: pest or weed control at 320 g/ha [1] | pest or weed control at 320 g/ha [2] | pest or weed control at 80 g/ha [3] | pest or weed control at 80 g/ha [4]

CCOC(=O)c1c(SC)ccc(C(=O)N(C(=O)c2ccc(SC)c(C(=O)OCC)c2C)c2nnnn2C)c1C [1-453, 3-(ethoxycarbonyl)-2-methyl-4-(methylsulfanyl)-N-(3-(ethoxycarbonyl)-2-methyl-4-(methylsulfanyl)benzoyl)-N-(1-methyltetrazol-5-yl)benzamide]
≥ 80%: pest or weed control at 80 g/ha [3] | pest or weed control at 80 g/ha [4]

CSc1c(N(C)C)ccc(C(=O)N(C(=O)c2ccc(N(C)C)c(SC)c2C)c2nnnn2C)c1C [1-454]
≥ 80%: pest or weed control at 320 g/ha [1] | pest or weed control at 320 g/ha [2]

CCOc1ccc(C(=O)N(C(=O)c2ccc(OCC)c(SC)c2C)c2nnnn2C)c(C)c1SC [1-457]
≥ 80%: pest or weed control at 80 g/ha [3] | pest or weed control at 80 g/ha [4]

CSc1c(OCC(F)(F)F)ccc(C(=O)N(C(=O)c2ccc(OCC(F)(F)F)c(SC)c2C)c2nnnn2C)c1C [1-458]
≥ 80%: pest or weed control at 320 g/ha [1] | pest or weed control at 320 g/ha [2]

CSc1cc(C)cc(C(=O)N(C(=O)c2cc(C)cc(SC)c2C)c2nnnn2C)c1C [1-460]
≥ 80%: pest or weed control at 80 g/ha [3] | pest or weed control at 80 g/ha [4]

CCOc1c(C(=O)N(C(=O)c2ccc(C(F)(F)F)c(SC)c2OCC)c2nnnn2C)ccc(C(F)(F)F)c1SC [1-471]
≥ 80%: pest or weed control at 320 g/ha [1] | pest or weed control at 320 g/ha [2] | pest or weed control at 80 g/ha [3] | pest or weed control at 80 g/ha [4]

CCOc1c(C(=O)N(C(=O)c2ccc(C(F)(F)F)c(S(C)(=O)=O)c2OCC)c2nnnn2C)ccc(C(F)(F)F)c1S(C)(=O)=O [1-472]
≥ 80%: pest or weed control at 320 g/ha [1] | pest or weed control at 320 g/ha [2] | pest or weed control at 80 g/ha [3] | pest or weed control at 80 g/ha [4]

Cc1nonc1N(C(=O)c1ccc(C(F)(F)F)c([S+](C)[O-])c1C)C(=O)c1ccc(C(F)(F)F)c([S+](C)[O-])c1C (centres unmarked) [4-144]
≥ 80%: pest or weed control at 80 g/ha [3] | pest or weed control at 80 g/ha [4]

CC[S+]([O-])c1c(S(C)(=O)=O)ccc(C(=O)N(C(=O)c2ccc(S(C)(=O)=O)c([S+]([O-])CC)c2C)c2nonc2C)c1C (centres unmarked) [4-188]
≥ 80%: pest or weed control at 320 g/ha [1] | pest or weed control at 320 g/ha [2] | pest or weed control at 80 g/ha [3] | pest or weed control at 80 g/ha [4]

CC(=O)N(C(=O)c1ccc(C(F)(F)F)cc1S(C)(=O)=O)c1nnnn1C [13-001, 2-(methylsulfonyl)-4-trifluoromethyl-N-acetyl-N-(1-methyltetrazol-5-yl)benzamide]
≥ 80%: pest or weed control at 320 g/ha [1] | pest or weed control at 320 g/ha [2] | pest or weed control at 80 g/ha [3] | pest or weed control at 80 g/ha [4]
